Measurements from patent publication US9242984B2, “Pyrazolyl derivatives as Syk inhibitors” (Merck Sharp & Dohme Corp., priority 2012, dated 2016).
Read-outs that look alike come from different tables or passages of the source.

Target: T1, recombinant human Syk (GST-hSyk fusion protein) (Homo sapiens, UniProt P43405)
T1 construct: purchased Carna Biosciences 08-176
Experiment: Homogeneous Time-Resolved Fluorescence (HTRF) assay for the recombinant human Syk enzyme
Assay type: biochemical
Settings: 10-dose titration, 25 μM ATP
In short: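 GST-hSyk (5 pM) preincubated 10 min with compound (0.1% DMSO) in 15 mM Tris-HCl pH 7.5, 2 mM DTT; reaction started with 250 nM biotinylated peptide, 5 mM Mg, 25 μM ATP, 45 min, room temperature. EDTA quench, Eu-anti-phosphotyrosine/SA-APC HTRF read after 30 min; IC50 from 10-dose titration (10 μM–0.508 nM), four-parameter fit.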

[1] = IC50 class, read-out: rhSYK Activity

Compound | IC50 [1] [µM] | IC50 (read-out: rhSYK IC50) [µM]
COC1CC(O)(Cn2cc(-c3cc(C)cc(Nc4nccc(C)n4)c3)cn2)C1 (stereo not shown) [Example 12.3, 3-methoxy-1-[(4-{3-methyl-5-[(4-methylpyrimidin-2-yl)amino]phenyl}-1H-pyrazol-1-yl)methyl]-cyclobutanol] | ≤ 0.1 | –
CC(=O)C(C)n1cc(-c2cc(C)cc(Nc3nccc(C(F)F)n3)c2)cn1 (stereo not shown) [Example 3.98, 3-[4-(3-{[4-(difluoromethyl)pyrimidin-2-yl]amino}-5-methylphenyl)-1H-pyrazol-1-yl]butan-2-one] | ≤ 0.1 | –
Cc1cc(Nc2cc(C(F)(F)F)ccn2)nc(-c2cnn(CC(C)(O)CO)c2)c1 (stereo not shown) [Example 21.5, 2-methyl-3-[4-(4-methyl-6-{[4-(trifluoromethyl)pyridin-2-yl]amino}pyridin-2-yl)-1H-pyrazol-1-yl]propane-1,2-diol] | ≤ 0.1 | –
Cc1cc(Nc2nccc(C)n2)cc(-c2cnn(CC3CNC(=O)O3)c2)c1 (stereo not shown) [Example 2.18, 5-[(4-{3-methyl-5-[(4-methylpyrimidin-2-yl)amino]phenyl}-1H-pyrazol-1-yl)methyl]-1,3-oxazolidin-2-one] | ≤ 0.1 | –
Cc1cc(Nc2nccc(C(F)F)n2)cc(-c2cnn(CC(O)CNC(=O)OC(C)(C)C)c2)c1 (stereo not shown) [Example 5.21, tert-butyl {3-[4-(3-{[4-(difluoromethyl)pyrimidin-2-yl]amino}-5-methylphenyl)-1H-pyrazol-1-yl]-2-hydroxypropyl}carbamate] | ≤ 0.1 | –
Cc1cc(Nc2nccc(C(F)(F)F)n2)cc(-c2cnn(C3CCC(C(=O)OC(C)(C)C)CC3)c2)c1 (stereo not shown) [Example 1.4, tert-butyl 4-[4-(3-methyl-5-{[4-(trifluoromethyl)-pyrimidin-2-yl]amino}-phenyl)-1H-pyrazol-1-yl]-cyclohexanecarboxylate] | 1 to 10 | –
Cc1ccnc(Nc2cccc(-c3cnn(CC4CNC(=O)O4)c3)c2)n1 (stereo not shown) [Example 2.16, 5-[(4-{3-[(4-methylpyrimidin-2-yl)amino]phenyl}-1H-pyrazol-1-yl)methyl]-1,3-oxazolidin-2-one] | 0.1 to 1 | –
Cc1cc(Nc2nccc(C(F)(F)F)n2)cc(-c2cnn(C[C@@H](O)C(N)=O)c2)c1 [Example 8.13, (2r)-2-hydroxy-3-[4-(3-methyl-5-{[4-(trifluorometh-yl)pyrimidin-2-yl]amino}phenyl)-1H-pyrazol-1-yl]propanamide] | ≤ 0.1 | –
Cc1cc(Nc2nccc(C(F)F)n2)cc(-c2cnn(CC3OC(=O)NC3C3CC3)c2)c1 (stereo not shown) [Example 23.17, 4-cyclopropyl-5-{[4-(3-{[4-(difluoromethyl)pyrimidin-2-yl]amino}-5-methylphenyl)-1H-pyrazol-1-yl]methyl}-1,3-oxazolidin-2-one] | ≤ 0.1 | –
Cc1cc(Nc2nccc(C(F)F)n2)cc(-c2cnn(C3CCCC(C)(O)C3(C)O)c2)c1 (stereo not shown) [Example 22.12, 3-[4-(3-{[4-(difluoromethyl)pyrimidin-2-yl]amino}-5-methylphenyl)-1H-pyrazol-1-yl]-1,2-dimethylcyclohexane-1,2-diol] | ≤ 0.1 | 0.0074
Cc1cc(Nc2nccc(C(F)F)n2)cc(-c2cnn(C3CC(C)(C)CC(C)(O)C3O)c2)c1 (stereo not shown) [Example 22.9, 3-[4-(3-{[4-(difluoromethyl)pyrimidin-2-yl]amino}-5-methylphenyl)-1H-pyrazol-1-yl]-1,5,5-trimethylcyclohexane-1,2-diol] | ≤ 0.1 | 0.0011
Cc1cc(Nc2cc(C(F)(F)F)ccn2)nc(-c2cnn(CC(C)(O)CO)c2)c1 (stereo not shown) [Example 21.4, 2-methyl-3-[4-(4-methyl-6-{[4-(trifluoromethyl)pyridin-2-yl]amino}pyridin-2-yl)-1H-pyrazol-1-yl]propane-1,2-diol] | ≤ 0.1 | –
Cc1cc(Nc2nccc(C(F)(F)F)n2)cc(-c2cnn([C@@H](C)[C@](C)(O)CO)c2)c1 (single isomer, unassigned) [Example 21.10, 2-methyl-3-[4-(3-methyl-5-{[4-(trifluoromethyl)pyrimidin-2-yl]amino}phenyl)-1H-pyrazol-1-yl]butane-1,2-diol] | ≤ 0.1 | –
O=C(O)C1CCC(n2cc(-c3cc(Cl)cc(Nc4nccc(C(F)(F)F)n4)c3)cn2)CC1 (stereo not shown) [Example 1.60, 4-[4-(3-chloro-5-{[4-(trifluoromethyl)pyrimidin-2-yl]amino}phenyl)-1H-pyrazol-1-yl]cyclohexanecarboxylic acid] | ≤ 0.1 | –
COc1ccnc(Nc2cc(C)cc(-c3cnn(CC4CNC(=O)O4)c3)c2)n1 (stereo not shown) [Example 2.21, 5-[(4-{3-[(4-methoxypyrimidin-2-yl)amino]-5-methylphenyl}-1H-pyrazol-1-yl)methyl]-1,3-oxazolidin-2-one] | ≤ 0.1 | –
Cc1cc(Nc2cc(C(F)(F)F)ccn2)nc(-c2cnn(CC(C)(O)CC#N)c2)c1 (single isomer, unassigned) [Example 20.1, (R or S)-3-Hydroxy-3-methyl-4-(4-(4-methyl-6-((4-(trifluoromethyl)pyridin-2-yl)amino)pyridin-2-yl)-1H-pyrazol-1-yl)butanenitrile] | ≤ 0.1 | 0.0017

Compound | IC50 [1] [µM] | IC50 (read-out: rhSYK IC50) [µM]
Cc1cc(Nc2ncc(F)c(C(F)F)n2)cc(-c2cnn(CC(C)(O)CC#N)c2)c1 (stereo not shown) [Example 20.5, 4-[4-(3-{[4-(difluoromethyl)-5-fluoropyrimidin-2-yl]amino}-5-methylphenyl)-1H-pyrazol-1-yl]-3-hydroxy-3-methylbutanenitrile] | ≤ 0.1 | –
CCOC(=O)CCc1cnn(-c2cc(C)cc(Nc3nccc(C4CC4)n3)c2)c1 [Example 19.4, Ethyl 3-(1-{3-[(4-cyclopropylpyrimidin-2-yl)amino]-5-methylphenyl}-1H-pyrazol-4-yl)propanoate] | 0.1 to 1 | –
Cc1cc(Nc2nccc(C(F)F)n2)cc(-c2cnn(CC(C)(O)CC#N)c2)c1 (stereo not shown) [Example 20.7, 4-[4-(3-{[4-(difluoromethyl)pyrimidin-2-yl]amino}-5-methylphenyl)-1H-pyrazol-1-yl]-3-hydroxy-3-methylbutanenitrile] | ≤ 0.1 | –
COc1nc(Nc2cc(C)cc(-c3cnn(C[C@@H](O)C(=O)O)c3)c2)ncc1Cl [Example 11.15, (2R)-3-(4-{3-[(5-chloro-4-methoxy-pyrimidin-2-yl)amino]-5-methyl-phenyl}-1H-pyrazol-1-yl)-2-hydroxy-propanoic acid] | ≤ 0.1 | –
Cc1cc(Nc2nccc(C(F)F)n2)cc(-c2cnn(CC3OC(=O)NC3CO)c2)c1 (single isomer, unassigned) [Example 33.4, 5-{[4-(3-{[4-(difluoromethyl)pyrimidin-2-yl]amino}-5-methylphenyl)-1H-pyrazol-1-yl]methyl}-4-(hydroxymethyl)-1,3-oxazolidin-2-one] | ≤ 0.1 | –
Cc1cc(Nc2nccc(C(F)F)n2)cc(-c2cnn(C(C)C3CNC(=O)O3)c2)c1 (stereo not shown) [Example 3.91, 5-{1-[4-(3-{[4-(difluoromethyl)pyrimidin-2-yl]amino}-5-methylphenyl)-1H-pyrazol-1-yl]ethyl}-1,3-oxazolidin-2-one] | ≤ 0.1 | –
Cc1cc(Nc2nccc(C(F)(F)F)n2)cc(-c2cnn(C[C@H](O)CO)c2)c1 [Example 3.42, (2S)-3-[4-(3-methyl-5-{[4-(trifluoromethyl)pyrimidin-2-yl]amino}phenyl)-1H-pyrazol-1-yl]propane-1,2-diol] | ≤ 0.1 | –
COc1nc(Nc2cc(C)cc(-c3cnn(CCC(N)=O)c3)c2)ncc1Cl [Example 2.7, 3-(4-{3-[(5-chloro-4-methoxypyrimidin-2-yl)amino]-5-methylphenyl}-1H-pyrazol-1-yl)propanamide] | ≤ 0.1 | –
Cc1cc(Nc2nccc(C3CC3)n2)cc(-c2cnn(C[C@@H](O)C(=O)O)c2)c1 [Example 11.1, (R)-3-(4-(3-(4-cyclopropylpyrimidin-2-ylamino)-5-methylphenyl)-1H-pyrazol-1-yl)-2-hydroxypropanoic acid] | ≤ 0.1 | 0.0062
Cc1cc(Nc2nccc(C(F)(F)F)n2)cc(-c2cnn(C[C@H](O)CC#N)c2)c1 [Example 3.2, (3R)-3-hydroxy-4-[4-(3-methyl-5-{[4-(trifluoromethyl)-pyrimidin-2-yl]amino}phenyl)-1H-pyrazol-1-yl]-butanenitrile] | ≤ 0.1 | –
COc1nc(Nc2cc(C)cc(-c3cnn(C[C@](C)(O)CO)c3)c2)ncc1F [Example 2.89, (2S)-3-(4-{3-[(5-fluoro-4-methoxypyrimidin-2-yl)amino]-5-methylphenyl}-1H-pyrazol-1-yl)-2-methylpropane-1,2-diol] | ≤ 0.1 | –
Cc1cc(Nc2nccc(C(F)F)n2)cc(-c2cnn(CC(C)(C)O)c2)c1 [Example 5.35, 1-[4-(3-{[4-(difluoromethyl)pyrimidin-2-yl]amino}-5-methylphenyl)-1H-pyrazol-1-yl]-2-methylpropan-2-ol] | ≤ 0.1 | –
Cc1cc(Nc2cc(C(F)F)ccn2)nc(-c2cnn(C(C)C3CNC(=O)C3)c2)c1 (stereo not shown) [Example 1.62, 4-{1-[4-(6-{[4-(difluoromethyl)pyridin-2-yl]amino}-4-methylpyridin-2-yl)-1H-pyrazol-1-yl]ethyl}pyrrolidin-2-one] | ≤ 0.1 | –
Cc1cc(Nc2nccc(C)n2)cc(-c2cnn(C3CCCC(O)C3O)c2)c1 (stereo not shown) [Example 10.8, 3-(4-{3-methyl-5-[(4-methylpyrimidin-2-yl)amino]phenyl}-1H-pyrazol-1-yl)cyclohexane-1,2-diol] | ≤ 0.1 | 0.0078
Cc1cc(Nc2nccc(C(F)(F)F)n2)cc(-c2cnn(CC3OC(=O)NC3C)c2)c1 (stereo not shown) [Example 3.119, 4-methyl-5-{[4-(3-methyl-5-{[4-(trifluoromethyl)pyrimidin-2-yl]amino}phenyl)-1H-pyrazol-1-yl]methyl}-1,3-oxazolidin-2-one] | ≤ 0.1 | –
Cc1cc(Nc2nccc(C(F)(F)F)n2)cc(-c2cnn(CC(=O)N3CCCC3)c2)c1 [Example 3.27, N-{3-methyl-5-[1-(2-oxo-2-pyrrolidin-1-ylethyl)-1H-pyrazol-4-yl]phenyl}-4-(trifluoromethyl)pyrimidin-2-amine] | ≤ 0.1 | –
